In the kinase profiling compilation of Christmann-Franck et al. (2016):
Where “and” joins values, the source holds several entries; their conditions need not be identical. Equal values may be shown once.

What was measured:
Assay in all cases: radiometric filter-binding kinase assay, Kinase HotSpot
Conditions in all cases: compound 0.5 µM; ATP 10 µM
[1] = biological target: AKT1 (human) (UniProt P31749)
[2] = biological target: TAOK1 (human) (UniProt Q7L7X3)
[3] = biological target: MAPK14 (human) (UniProt Q16539)
MAPK14 (human), sequence (Q16539 whole entry, looked up): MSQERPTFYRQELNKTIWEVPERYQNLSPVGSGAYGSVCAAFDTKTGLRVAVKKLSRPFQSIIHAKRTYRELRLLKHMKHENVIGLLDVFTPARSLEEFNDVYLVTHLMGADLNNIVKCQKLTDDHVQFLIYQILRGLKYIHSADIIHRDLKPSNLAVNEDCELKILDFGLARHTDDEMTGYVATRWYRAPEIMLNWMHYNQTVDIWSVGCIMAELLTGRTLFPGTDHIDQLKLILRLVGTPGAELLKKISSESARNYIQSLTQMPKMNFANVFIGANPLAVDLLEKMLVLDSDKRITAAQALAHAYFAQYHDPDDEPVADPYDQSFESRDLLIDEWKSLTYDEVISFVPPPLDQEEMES

[4] = biological target: PAK2 (human) (UniProt Q13177)
[5] = biological target: CAMK2B (human) (UniProt Q13554)
[6] = biological target: JAK1 JH1 catalytic (human) (UniProt P23458)
[7] = biological target: DMPK (human) (UniProt Q09013)
[8] = biological target: PASK (human) (UniProt Q96RG2)
[9] = biological target: PRKD3 (human) (UniProt O94806)
[10] = biological target: GRK6 (human) (UniProt P43250)
[11] = biological target: ZAP70 (human) (UniProt P43403)
[12] = biological target: LCK (human) (UniProt P06239)
[13] = biological target: PLK3 (human) (UniProt Q9H4B4)
[14] = biological target: CDK4 CCND1 (human) (UniProt P24385+P11802)
[15] = biological target: CDK1 CCNA2 (human) (UniProt P06493+P20248)
[16] = biological target: FER (human) (UniProt P16591)
[17] = biological target: FLT1 (human) (UniProt P17948)
[18] = biological target: PIM1 (human) (UniProt P11309)
[19] = biological target: RPS6KB2 (human) (UniProt Q9UBS0)
[20] = biological target: DCLK2 (human) (UniProt Q8N568)
[21] = biological target: HCK (human) (UniProt P08631)
[22] = biological target: SRPK1 (human) (UniProt Q96SB4)
[23] = biological target: TBK1 (human) (UniProt Q9UHD2)
[24] = biological target: RPS6KA1 KD1 KD2 (human) (UniProt Q15418)
RPS6KA1 KD1 KD2 (human), sequence (Q15418 whole entry, looked up): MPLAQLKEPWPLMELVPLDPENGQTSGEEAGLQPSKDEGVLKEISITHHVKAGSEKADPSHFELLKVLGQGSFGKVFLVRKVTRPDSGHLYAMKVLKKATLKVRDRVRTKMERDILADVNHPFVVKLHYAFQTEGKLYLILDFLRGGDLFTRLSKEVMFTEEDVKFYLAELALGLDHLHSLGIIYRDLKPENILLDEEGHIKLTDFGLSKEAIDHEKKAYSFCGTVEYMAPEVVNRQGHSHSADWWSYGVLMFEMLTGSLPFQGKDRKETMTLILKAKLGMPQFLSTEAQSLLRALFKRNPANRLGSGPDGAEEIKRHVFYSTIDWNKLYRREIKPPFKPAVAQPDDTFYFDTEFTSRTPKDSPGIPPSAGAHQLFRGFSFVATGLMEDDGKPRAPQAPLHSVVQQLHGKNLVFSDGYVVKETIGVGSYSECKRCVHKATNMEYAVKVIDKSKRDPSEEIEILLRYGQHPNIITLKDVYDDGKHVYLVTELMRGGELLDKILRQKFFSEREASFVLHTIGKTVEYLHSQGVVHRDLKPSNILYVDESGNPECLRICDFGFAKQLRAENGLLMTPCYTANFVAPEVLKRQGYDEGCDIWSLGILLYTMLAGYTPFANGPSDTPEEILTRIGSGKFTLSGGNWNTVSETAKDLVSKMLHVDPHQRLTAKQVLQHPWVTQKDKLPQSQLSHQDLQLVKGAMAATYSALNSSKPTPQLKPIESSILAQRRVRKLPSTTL

[25] = biological target: JAK2 JH1 JH2 (human) (UniProt O60674)
[26] = biological target: MAPKAPK3 (human) (UniProt Q16644)
[27] = biological target: PDPK1 (human) (UniProt O15530)
PDPK1 (human), sequence (O15530 whole entry, looked up): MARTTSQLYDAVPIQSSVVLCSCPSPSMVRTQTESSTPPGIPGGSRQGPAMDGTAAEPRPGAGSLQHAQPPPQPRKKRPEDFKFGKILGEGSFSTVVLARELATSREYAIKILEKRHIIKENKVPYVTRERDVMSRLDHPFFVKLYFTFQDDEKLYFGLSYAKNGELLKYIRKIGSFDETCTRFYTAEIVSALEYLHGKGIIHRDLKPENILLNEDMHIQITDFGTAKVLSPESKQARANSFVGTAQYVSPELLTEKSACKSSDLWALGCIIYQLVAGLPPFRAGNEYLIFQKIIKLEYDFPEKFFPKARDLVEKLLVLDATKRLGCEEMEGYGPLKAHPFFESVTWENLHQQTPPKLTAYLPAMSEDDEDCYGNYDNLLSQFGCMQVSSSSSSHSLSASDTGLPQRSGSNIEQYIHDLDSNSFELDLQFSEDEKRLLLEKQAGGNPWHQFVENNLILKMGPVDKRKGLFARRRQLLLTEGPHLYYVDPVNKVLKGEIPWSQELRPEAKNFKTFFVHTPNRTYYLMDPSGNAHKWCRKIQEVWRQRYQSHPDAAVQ

[28] = biological target: CSNK1G1 (human) (UniProt Q9HCP0)
[29] = biological target: IRAK4 (human) (UniProt Q9NWZ3)
[30] = biological target: WEE1 (human) (UniProt P30291)
[31] = biological target: BLK (human) (UniProt P51451)
[32] = biological target: MAPK9 (human) (UniProt P45984)
[33] = biological target: LYN (human) (UniProt P07948)
[34] = biological target: PRKCH (human) (UniProt P24723)
[35] = biological target: DAPK1 (human) (UniProt P53355)
[36] = biological target: NEK9 (human) (UniProt Q8TD19)
[37] = biological target: PDGFRA (human) (UniProt P16234)
PDGFRA (human), sequence (P16234 whole entry, looked up): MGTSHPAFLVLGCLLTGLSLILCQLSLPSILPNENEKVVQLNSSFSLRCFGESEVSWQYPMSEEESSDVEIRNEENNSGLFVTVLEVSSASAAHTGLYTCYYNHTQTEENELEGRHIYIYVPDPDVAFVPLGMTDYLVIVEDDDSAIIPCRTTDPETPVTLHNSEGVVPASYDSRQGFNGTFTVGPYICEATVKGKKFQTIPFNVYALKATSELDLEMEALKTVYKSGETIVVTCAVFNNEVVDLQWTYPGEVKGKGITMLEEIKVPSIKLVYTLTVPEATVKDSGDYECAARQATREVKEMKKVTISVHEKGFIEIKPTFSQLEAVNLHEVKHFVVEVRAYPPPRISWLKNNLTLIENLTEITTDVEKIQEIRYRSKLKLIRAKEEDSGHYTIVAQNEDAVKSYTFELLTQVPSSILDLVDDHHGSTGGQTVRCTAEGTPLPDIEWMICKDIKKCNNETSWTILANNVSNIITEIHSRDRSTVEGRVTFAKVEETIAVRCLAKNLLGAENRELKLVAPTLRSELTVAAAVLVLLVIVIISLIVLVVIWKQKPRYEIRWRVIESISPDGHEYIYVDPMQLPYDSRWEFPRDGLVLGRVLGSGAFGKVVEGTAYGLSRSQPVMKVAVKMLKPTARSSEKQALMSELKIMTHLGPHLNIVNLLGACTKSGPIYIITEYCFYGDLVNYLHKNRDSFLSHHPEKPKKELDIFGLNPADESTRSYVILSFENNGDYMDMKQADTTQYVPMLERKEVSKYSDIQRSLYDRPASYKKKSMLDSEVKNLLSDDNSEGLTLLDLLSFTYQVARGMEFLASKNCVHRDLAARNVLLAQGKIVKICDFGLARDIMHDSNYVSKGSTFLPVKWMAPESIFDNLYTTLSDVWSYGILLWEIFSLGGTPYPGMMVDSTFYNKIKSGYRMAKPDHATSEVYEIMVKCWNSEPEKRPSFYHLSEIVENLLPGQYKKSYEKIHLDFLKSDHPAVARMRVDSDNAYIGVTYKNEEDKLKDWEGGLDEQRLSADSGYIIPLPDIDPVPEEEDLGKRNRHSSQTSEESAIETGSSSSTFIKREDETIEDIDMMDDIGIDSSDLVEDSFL

[38] = biological target: ROS1 (human) (UniProt P08922)
[39] = biological target: PAK1 (human) (UniProt Q13153)
PAK1 (human), sequence (Q13153 whole entry, looked up): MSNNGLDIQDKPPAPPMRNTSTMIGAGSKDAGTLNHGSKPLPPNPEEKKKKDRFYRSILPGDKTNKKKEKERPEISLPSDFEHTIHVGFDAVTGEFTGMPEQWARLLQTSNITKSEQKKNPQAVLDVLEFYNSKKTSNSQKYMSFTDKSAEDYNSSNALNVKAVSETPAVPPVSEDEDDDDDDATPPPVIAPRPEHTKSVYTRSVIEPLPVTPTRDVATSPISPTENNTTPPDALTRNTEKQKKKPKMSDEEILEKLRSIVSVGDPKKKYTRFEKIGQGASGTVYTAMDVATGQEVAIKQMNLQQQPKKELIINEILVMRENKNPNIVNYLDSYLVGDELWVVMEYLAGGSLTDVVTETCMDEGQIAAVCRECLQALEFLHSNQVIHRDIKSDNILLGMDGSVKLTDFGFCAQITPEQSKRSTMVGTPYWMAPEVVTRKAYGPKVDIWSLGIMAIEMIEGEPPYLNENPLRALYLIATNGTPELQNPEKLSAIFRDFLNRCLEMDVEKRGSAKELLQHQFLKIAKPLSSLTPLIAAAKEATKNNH

[40] = biological target: TNK2 (human) (UniProt Q07912)
[41] = biological target: CAMK4 (human) (UniProt Q16566)
[42] = biological target: TLK2 (human) (UniProt Q86UE8)

AKT1 (human), sequence (P31749 whole entry, looked up): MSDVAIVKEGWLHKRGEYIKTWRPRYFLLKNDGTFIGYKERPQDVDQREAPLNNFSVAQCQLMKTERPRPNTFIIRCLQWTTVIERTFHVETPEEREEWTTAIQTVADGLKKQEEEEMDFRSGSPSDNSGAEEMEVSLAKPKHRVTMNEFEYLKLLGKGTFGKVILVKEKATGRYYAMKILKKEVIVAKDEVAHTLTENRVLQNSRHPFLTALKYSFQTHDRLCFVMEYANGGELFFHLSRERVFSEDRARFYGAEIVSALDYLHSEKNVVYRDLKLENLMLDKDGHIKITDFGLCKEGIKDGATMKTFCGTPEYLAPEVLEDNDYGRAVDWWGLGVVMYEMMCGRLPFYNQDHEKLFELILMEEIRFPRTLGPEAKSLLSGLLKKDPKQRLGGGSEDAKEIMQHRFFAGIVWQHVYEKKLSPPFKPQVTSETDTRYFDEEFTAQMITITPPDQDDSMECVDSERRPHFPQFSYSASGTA
TAOK1 (human), sequence (Q7L7X3 whole entry, looked up): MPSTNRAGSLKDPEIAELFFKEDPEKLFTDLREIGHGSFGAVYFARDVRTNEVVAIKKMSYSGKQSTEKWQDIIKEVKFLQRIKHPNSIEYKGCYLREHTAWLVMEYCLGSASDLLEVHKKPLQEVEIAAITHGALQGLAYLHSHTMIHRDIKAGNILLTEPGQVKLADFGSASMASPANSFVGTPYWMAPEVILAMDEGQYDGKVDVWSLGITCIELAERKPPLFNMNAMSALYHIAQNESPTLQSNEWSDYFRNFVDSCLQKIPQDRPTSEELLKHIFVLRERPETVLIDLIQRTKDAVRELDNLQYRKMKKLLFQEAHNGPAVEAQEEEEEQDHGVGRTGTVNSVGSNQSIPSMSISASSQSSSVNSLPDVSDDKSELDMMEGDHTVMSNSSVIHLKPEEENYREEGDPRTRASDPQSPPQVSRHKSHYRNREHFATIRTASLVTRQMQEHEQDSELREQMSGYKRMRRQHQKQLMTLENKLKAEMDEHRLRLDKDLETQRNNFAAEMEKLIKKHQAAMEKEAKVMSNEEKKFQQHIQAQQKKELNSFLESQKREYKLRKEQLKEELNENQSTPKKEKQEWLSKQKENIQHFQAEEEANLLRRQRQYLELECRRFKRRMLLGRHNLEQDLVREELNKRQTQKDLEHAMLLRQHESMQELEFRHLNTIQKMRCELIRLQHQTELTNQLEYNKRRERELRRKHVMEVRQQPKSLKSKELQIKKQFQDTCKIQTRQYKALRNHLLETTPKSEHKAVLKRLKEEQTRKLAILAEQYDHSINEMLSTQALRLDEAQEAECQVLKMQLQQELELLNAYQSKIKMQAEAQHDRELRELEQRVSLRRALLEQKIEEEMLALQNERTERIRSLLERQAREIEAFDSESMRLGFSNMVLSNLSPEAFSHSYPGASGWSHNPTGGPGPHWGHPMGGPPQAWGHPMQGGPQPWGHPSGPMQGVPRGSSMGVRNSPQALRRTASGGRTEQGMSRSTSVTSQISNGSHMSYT

Cc1ccc(S(=O)(=O)/C=C/C#N)cc1
residual activity [1]: 112% | residual activity [2]: 96.5% | residual activity [3]: 97.4% | residual activity [4]: 102% | residual activity [5]: 106% | residual activity [6]: 98.2% | residual activity [7]: 89% | residual activity [8]: 99.3% | residual activity [9]: 96.1% | residual activity [10]: 112% | residual activity [11]: 97.5% | residual activity [12]: 93.7% | residual activity [13]: 97.1% | residual activity [14]: 103% | residual activity [15]: 96.7% | residual activity [16]: 104% | residual activity [17]: 92.8% | residual activity [18]: 101% | residual activity [19]: 109% | residual activity [20]: 96.1% | residual activity [21]: 100% | residual activity [22]: 99.7% | residual activity [23]: 83.9% | residual activity [24]: 91.6% | residual activity [25]: 99.5% | residual activity [26]: 97.8% | residual activity [27]: 102% | residual activity [28]: 101% | residual activity [29]: 161% | residual activity [30]: 96.4% | residual activity [31]: 103% | residual activity [32]: 102% | residual activity [33]: 101% and 108% | residual activity [34]: 106% | residual activity [35]: 100% | residual activity [36]: 95.6% | residual activity [37]: 94.2% | residual activity [38]: 94.1% | residual activity [39]: 89.5% | residual activity [40]: 94.9% | residual activity [41]: 96.4%

Nc1cccc(-c2cc3c(Oc4cccc(O)c4)ncnc3[nH]2)c1
residual activity [1]: 92.5% | residual activity [2]: 142% | residual activity [3]: 98.1% | residual activity [4]: 88.9% | residual activity [5]: 101% | residual activity [6]: 106% | residual activity [7]: 95.2% | residual activity [8]: 96.2% | residual activity [9]: 91% | residual activity [10]: 98% | residual activity [11]: 97.5% | residual activity [12]: 24.2% | residual activity [13]: 95.7% | residual activity [14]: 88.7% | residual activity [15]: 99.3% | residual activity [16]: 44% | residual activity [17]: 8.56% | residual activity [18]: 85.9% | residual activity [19]: 94.7% | residual activity [20]: 89% | residual activity [21]: 6.65% | residual activity [22]: 107% | residual activity [23]: 92.9% | residual activity [24]: 105% | residual activity [25]: 85.4% | residual activity [26]: 97.6% | residual activity [27]: 86.8% | residual activity [28]: 102% | residual activity [29]: 88.2% | residual activity [30]: 85.5% | residual activity [31]: 38.1% | residual activity [32]: 111% | residual activity [33]: 11.1% and 21.4% | residual activity [34]: 90% | residual activity [35]: 89.1% | residual activity [36]: 103% | residual activity [37]: 73.6% | residual activity [38]: 39.7% | residual activity [39]: 88% | residual activity [40]: 19.6% | residual activity [41]: 94.9%

CNC(=O)c1cc(Oc2ccc(NC(=O)Nc3ccc(Cl)c(C(F)(F)F)c3)cc2)ccn1
residual activity [1]: 96.2% | residual activity [2]: 82% | residual activity [3]: 40.2% | residual activity [4]: 101% | residual activity [5]: 96.7% | residual activity [6]: 110% | residual activity [7]: 93.2% | residual activity [8]: 99.5% | residual activity [9]: 94% | residual activity [10]: 107% | residual activity [11]: 97.8% | residual activity [13]: 99.3% | residual activity [14]: 96.2% | residual activity [15]: 100% | residual activity [16]: 101% | residual activity [17]: 50.5% | residual activity [18]: 97.1% | residual activity [19]: 103% | residual activity [20]: 102% | residual activity [21]: 90.3% | residual activity [22]: 98.6% | residual activity [23]: 98.6% | residual activity [24]: 101% | residual activity [25]: 98.2% | residual activity [26]: 100% | residual activity [27]: 95.8% | residual activity [28]: 102% | residual activity [29]: 99.6% | residual activity [30]: 103% | residual activity [31]: 99.1% | residual activity [42]: 84.8% | residual activity [32]: 94.8% | residual activity [33]: 88.1% and 98.8% | residual activity [34]: 107% | residual activity [35]: 101% | residual activity [36]: 95.4% | residual activity [37]: 7.77% | residual activity [38]: 95.7% | residual activity [39]: 108% | residual activity [40]: 97.6% | residual activity [41]: 107%

CC#CC(=O)Nc1cc2c(Nc3ccc(F)c(Cl)c3)ncnc2cn1
residual activity [1]: 98.1% | residual activity [2]: 104% | residual activity [3]: 101% | residual activity [4]: 105% | residual activity [5]: 99.6% | residual activity [6]: 104% | residual activity [7]: 104% | residual activity [8]: 101% | residual activity [9]: 103% | residual activity [10]: 104% | residual activity [11]: 90.4% | residual activity [12]: 92.2% | residual activity [13]: 100% | residual activity [14]: 98.6% | residual activity [15]: 96.5% | residual activity [16]: 98.2% | residual activity [17]: 100% | residual activity [18]: 98.6% | residual activity [19]: 97.2% | residual activity [20]: 102% | residual activity [21]: 92.2% | residual activity [22]: 94.8% | residual activity [23]: 105% | residual activity [24]: 95.1% | residual activity [25]: 97.4% | residual activity [26]: 105% | residual activity [27]: 99.6% | residual activity [28]: 95.5% | residual activity [29]: 102% | residual activity [30]: 93.2% | residual activity [31]: 21.3% | residual activity [32]: 91.8% | residual activity [33]: 88.3% and 96.1% | residual activity [34]: 90.4% | residual activity [35]: 94.7% | residual activity [36]: 104% | residual activity [37]: 94.9% | residual activity [38]: 91.3% | residual activity [39]: 94.5% | residual activity [40]: 95.1% | residual activity [41]: 97.4%

CCN(CC)CCNC(=O)c1c(C)[nH]c(/C=C2\C(=O)Nc3ccc(F)cc32)c1C
residual activity [1]: 105% | residual activity [2]: 71.5% | residual activity [3]: 105% | residual activity [4]: 98.1% | residual activity [5]: 46.7% | residual activity [6]: 71.9% | residual activity [7]: 97.7% | residual activity [8]: 102% | residual activity [9]: 16.6% | residual activity [10]: 74.7% | residual activity [11]: 97.2% | residual activity [13]: 96.5% | residual activity [14]: 81% | residual activity [15]: 98.4% | residual activity [16]: 31.6% | residual activity [17]: 58.7% | residual activity [18]: 94.4% | residual activity [19]: 113% | residual activity [20]: 85% | residual activity [21]: 40% | residual activity [22]: 97% | residual activity [24]: 28% | residual activity [25]: 88.8% | residual activity [26]: 102% | residual activity [27]: 81.6% | residual activity [29]: 27.4% | residual activity [30]: 91.8% | residual activity [31]: 28.7% | residual activity [42]: 63.3% | residual activity [32]: 96.7% | residual activity [33]: 23% and 34.6% | residual activity [34]: 112% | residual activity [35]: 66.9% | residual activity [36]: 100% | residual activity [37]: 10.9% | residual activity [38]: 71.6% | residual activity [39]: 118% | residual activity [40]: 64.1% | residual activity [41]: 88.6%
